# Reference: ChEMBL document CHEMBL3885861, “Open TG-GATES”
# Species on record: Rattus norvegicus
# Assay: Open TG-GATES - Regimen: Single
# Assay type: toxicity, organism-based, Sprague-Dawley
# Parameters: regimen Single, gender Male, age 6 weeks
# Settings: in vivo, ip, 120 mg/kg, route intraperitoneal injection, dose level Middle; for APTT / Bas / Eos / Fbg / Hb / Ht / Lym / MCH / MCHC / MCV / Mono / Neu / PT / Plat / RBC / Ret / WBC: tissue Blood; for KIDNEY_L / KIDNEY_R / KIDNEY_TOTAL: tissue Kidney; for LIVER: tissue Liver; for A/G / ALP / ALT / AST / BUN / CRE / Ca / Cl / DBIL / GLC / IP / K / LDH / Na / PL / RALB / TBIL / TC / TG / TP / gamma-GTP: tissue Plasma
compound,measurement,setting,value
CC(C)=CC(=O)C=C(C)C [PHORONE],TERMINAL_BW,9 h,216.1 g
same,APTT,9 h,16.6 s
same,Bas,9 h,0%
same,Eos,9 h,0.8%
same,Fbg,9 h,229.2 mg/dL
same,Hb,9 h,13.4 g/dL
same,Ht,9 h,40.4%
same,Lym,9 h,72.6%
same,MCH,9 h,21.7 pg
same,MCHC,9 h,33.1%
same,MCV,9 h,65.5 fL
same,Mono,9 h,6.6%
same,Neu,9 h,20%
same,PT,9 h,12.1 s
same,Plat,9 h,113.6 x10_4/uL
same,RBC,9 h,617.2 x10_4/ul
same,Ret,9 h,8.9%
same,WBC,9 h,90 x10_2/uL
same,KIDNEY_L,9 h,1 g
same,KIDNEY_R,9 h,1 g
same,KIDNEY_TOTAL,9 h,2 g
same,LIVER,9 h,8.9 g
same,A/G,9 h,2.2
same,ALP,9 h,717.4 IU/L
same,ALT,9 h,31 IU/L
same,AST,9 h,66.8 IU/L
same,BUN,9 h,11.2 mg/dL
same,CRE,9 h,0.5 mg/dL
same,Ca,9 h,10.7 mg/dL
same,Cl,9 h,106.2 meq/L
same,DBIL,9 h,0.058 mg/dL
same,GLC,9 h,202.6 mg/dL
same,IP,9 h,10 mg/dL
same,K,9 h,4.7 meq/L
same,LDH,9 h,89.8 IU/L
same,Na,9 h,138.4 meq/L
same,PL,9 h,128 mg/dL
same,RALB,9 h,3.7 g/dL
same,TBIL,9 h,0.4 mg/dL
same,TC,9 h,74.2 mg/dL
same,TG,9 h,43.8 mg/dL
same,TP,9 h,5.4 g/dL
same,gamma-GTP,9 h,1.6 IU/L
same,TERMINAL_BW,24 h,229.2 g
same,APTT,24 h,16.9 s
same,Bas,24 h,0%
same,Eos,24 h,0.8%
same,Fbg,24 h,244 mg/dL
same,Hb,24 h,12.9 g/dL
same,Ht,24 h,39.2%
same,Lym,24 h,75.4%
same,MCH,24 h,21.3 pg
same,MCHC,24 h,32.9%
same,MCV,24 h,64.7 fL
same,Mono,24 h,6.8%
same,Neu,24 h,17.2%
same,PT,24 h,11.7 s
same,Plat,24 h,121.5 x10_4/uL
same,RBC,24 h,606.2 x10_4/ul
same,Ret,24 h,8.1%
same,WBC,24 h,94.9 x10_2/uL
same,KIDNEY_L,24 h,1.1 g
same,KIDNEY_R,24 h,1.1 g
same,KIDNEY_TOTAL,24 h,2.2 g
same,LIVER,24 h,11.9 g
same,A/G,24 h,2.1
same,ALP,24 h,860.6 IU/L
same,ALT,24 h,34.4 IU/L
same,AST,24 h,58.2 IU/L
same,BUN,24 h,15.8 mg/dL
same,CRE,24 h,0.5 mg/dL
same,Ca,24 h,10.9 mg/dL
same,Cl,24 h,103.6 meq/L
same,DBIL,24 h,0.03 mg/dL
same,GLC,24 h,194.8 mg/dL
same,IP,24 h,7.7 mg/dL
same,K,24 h,4.6 meq/L
same,LDH,24 h,176.4 IU/L
same,Na,24 h,139.2 meq/L
same,PL,24 h,148 mg/dL
same,RALB,24 h,3.7 g/dL
same,TBIL,24 h,0.4 mg/dL
same,TC,24 h,77.2 mg/dL
same,TG,24 h,106.2 mg/dL
same,TP,24 h,5.6 g/dL
same,gamma-GTP,24 h,0.6 IU/L
